According to patent publication US8017350B2, “Glimepiride- and insulin-induced glycosylphosphatidylinositol-specific phospholipase C regulation” (Sanofi-Aventis Deutschland GmbH, priority 2004, dated 2011):

Molecular target: T1, bacterial PC-PLC (Bacillus cereus) (Bacillus cereus, UniProt P09598)
T1 construct: purchased SigmalAldrich (Deisenhofen, Germany)
Test: PC-PLC assay (dipalmitoyllecithin)
Format: biochemical
Conditions: 50 μM
Method: Hormone-sensitive lipase (HSL) and lipoprotein lipase (LPL) were measured using a radiolabeled triolein droplet emulsion as described in “Vertesy et al., (2002) Journal Antibiotics 55:480-494”. Pancreatic lipase (PL) was determined by incubation of 0.25 mmol tributyrin in 2 ml of 5 mM Tris/HCl (pH 6.5), 6 mM sodium taurodeoxycholate, 150 mM NaCl, 1 mM CaCl2 with porcine PL and colipase in the same buffer using a recording pH stat (stirring at 1000 rpm at 25° C.) with the pH adjusted to 6.5. PC-PLC was assayed by incubation of 0.2 ml of 10 mM dipalmitoyllecithin, 0.1 ml of 10 mM SDC and 0.1 ml of 0.03 M CaCl2 with bacterial PC-PLC (in 50 mM Tris/HCl, pH 7.5, 0.1% BSA) for 10 min at 37° C. The reaction was terminated by addition of 0.1 ml of 50% TCA and subsequently of 2.5 ml of […]. After centrifugation (1500×g, 15 min), 0.2-ml portions of the upper methanol/water phase (˜1.33 ml) were removed, supplemented with 0.5 ml of 60% HClO4, then heated at 170° C. for 1 h and finally analyzed for inorganic phosphate. Mammalian PI-PLC was measured by incubation of 0.1 ml of 10 mM PI, 0.1 ml of 0.8% sodium deoxycholate, 0.1% BSA, 0.2 ml of 100 mM sodium borate (pH 7.5) and rat liver PI-PLC for 20 min at 37° C. The reaction was terminated and further processed as described for the PC-PLC. […] Radioactive phosphatidic acid was detected by phosphorimaging. […]

T1 sequence (P09598 39-283 limits assumed): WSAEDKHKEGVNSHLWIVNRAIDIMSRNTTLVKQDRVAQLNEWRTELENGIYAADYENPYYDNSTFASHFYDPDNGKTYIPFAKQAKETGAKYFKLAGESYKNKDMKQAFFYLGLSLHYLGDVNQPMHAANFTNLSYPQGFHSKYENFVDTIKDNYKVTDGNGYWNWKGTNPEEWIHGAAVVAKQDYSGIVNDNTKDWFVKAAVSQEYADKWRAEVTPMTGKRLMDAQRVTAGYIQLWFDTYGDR

Compound: CCCCCCCCCCCCP1(=O)O[C@@H]2[C@H](O)[C@@H](O)[C@H](O)[C@@H](O)[C@@H]2O1 (stereo partly shown) [GPI-2350, myo-inositol-1,2-cyclo-dodecylphosphonic acid]
- effect on PC-PLC: not significantly affected
